From patent US20090131481A1, “Transcription Factor Modulating Compounds and Methods of Use Thereof” (Paratek Pharmaceuticals, Inc., published 2009)
Like-named read-outs stand apart in the source and are kept apart here.

Tests used:
[1] = molecular target: T1, ExsA (Pseudomonas aeruginosa, UniProt P26993); test: Chemiluminescence-based ExsA-DNA binding assay; set-up: species or system P. aeruginosa; conditions: Table 7, cell-free system; read-out: ExsA EC50
T1 construct: made in house
T1 sequence (P26993 1-278): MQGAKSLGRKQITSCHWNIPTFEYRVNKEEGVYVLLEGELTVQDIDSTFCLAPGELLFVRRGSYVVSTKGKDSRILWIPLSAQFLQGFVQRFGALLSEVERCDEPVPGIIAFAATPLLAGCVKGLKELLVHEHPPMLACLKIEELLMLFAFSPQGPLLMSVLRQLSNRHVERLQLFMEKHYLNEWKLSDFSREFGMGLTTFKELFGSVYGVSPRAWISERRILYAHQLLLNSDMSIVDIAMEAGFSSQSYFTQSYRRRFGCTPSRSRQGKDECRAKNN

[2] = tested on: Y. pseudotuberculosis; test: microbe, parasite or virus in culture; conditions: Yersinia pseudotuberculosis, J774, read-out: % Cytotoxicity
[3] = molecular target: LcrF (VirF) (Yersinia pestis, UniProt P28808); test: biochemical; format: binding, Y. pseudotuberculosis
LcrF (VirF), sequence (P28808 whole entry, looked up): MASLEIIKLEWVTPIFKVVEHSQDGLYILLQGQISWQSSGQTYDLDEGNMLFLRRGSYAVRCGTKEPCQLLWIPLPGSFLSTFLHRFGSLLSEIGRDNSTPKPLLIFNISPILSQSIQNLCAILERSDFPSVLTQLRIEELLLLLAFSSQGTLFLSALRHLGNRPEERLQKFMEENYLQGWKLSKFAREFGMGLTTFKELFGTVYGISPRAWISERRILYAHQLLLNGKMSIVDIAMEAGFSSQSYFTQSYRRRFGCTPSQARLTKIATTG

[4] = tested on: P. aeruginosa; test: P. aeruginosa cytotoxicity whole cell assay (J774 cells, LDH release); conditions: relative to vehicle treated cells infected with wild type P. aeruginosa
[5] = read-out: EC50 for inhibition of LcrF(VirF)-DNA binding
[6] = EC50 for inhibition of LcrF(VirF)-DNA binding

Row | SMILES | EC50 [1] [µM] | activity at 50 µg/mL [2] [%] | EC50 [3, 5] [µM] | Cytotoxicity at 50 μg/mL Pseudomonas [4] | EC50 [3, 6] [µM]
1 | NS(=O)(=O)c1ccc(C(=O)Nc2ccc(-c3nc4ccc([N+](=O)[O-])cc4n3O)cc2)cc1 [AF] | 10 to 25 |  |  |  | 
2 | O=C(Nc1ccc(-c2nc3ccc([N+](=O)[O-])cc3n2O)cc1)c1ccc(O)cc1 [AE] | 10 to 25 |  |  |  | 
3 | O=C(Nc1ccc(-c2nc3ccc([N+](=O)[O-])cc3n2OCP(=O)(O)O)cc1)c1ccc(F)cc1 [DV] | > 25 | < 75 | > 25 |  | 
4 | CS(=O)(=O)c1ccc(C(=O)Nc2ccc(-c3nc4ccc([N+](=O)[O-])cc4n3O)cc2)cc1 [AG] | > 25 |  |  |  | 
5 | CN(C)CCN(C)c1cc2nc(-c3ccc(NC(=O)/C=C/c4ccc(F)cc4)cc3)n(O)c2cc1[N+](=O)[O-] [FQ] |  |  |  | ** (reduced P. aeruginosa cytotoxicity below 75% of untreated, wild type levels at 50 mg/mL) | 
6 | O=C(Nc1ccc(-c2nc3ccncc3n2O)cc1)c1ccc(F)cc1 [EJ] | > 25 | < 75 | > 25 |  | 
7 | C/C(=C\c1ccccc1)C(=O)Nc1ccc(-c2nc3ccc([N+](=O)[O-])cc3n2O)cc1 [CT] | > 25 | < 75 |  |  | > 25
8 | O=C(Nc1ccc(-c2nc3ccc([N+](=O)[O-])cc3n2O)nc1)c1ccc(F)cc1 [DQ] | > 25 | < 75 |  |  | > 25
9 | NC(=NO)c1ccc2nc(-c3ccc(NC(=O)c4ccc(F)cc4)cc3)n(O)c2c1 [CX] | > 25 | < 75 |  |  | > 25
10 | CC(C)c1ccc(/C=C/C(=O)Nc2ccc(-c3nc4ccc([N+](=O)[O-])cc4n3O)cc2)cc1 [CS] | > 25 | < 75 |  |  | > 25
11 | O=C(CCc1ccc(F)cc1)Nc1ccc(-c2nc3ccc([N+](=O)[O-])cc3n2O)cc1 [L] | > 25 |  |  |  | > 25
12 | O=C(Nc1ccc(-c2nc3ccc([N+](=O)[O-])cc3n2O)cc1)c1ccc2c(c1)CCCC2=O [EP] | > 25 | < 75 |  |  | > 25
13 | COc1ccc(/C=C/C(=O)Nc2ccc(-c3nc4ccc([N+](=O)[O-])cc4n3O)cc2)cc1 [T] | < 10 | < 75 |  |  | < 10
14 | N#Cc1ccc(/C=C/C(=O)Nc2ccc(-c3nc4ccc([N+](=O)[O-])cc4n3O)cc2)cc1 [X] | < 10 | < 75 |  |  | 10 to 25
15 | O=C(O)c1ccc(C(=O)Nc2ccc(-c3nc4ccc([N+](=O)[O-])cc4n3O)cc2)cc1 [AI] | > 25 |  |  |  | 
16 | O=C(Nc1ccc(-c2nc3ccc([N+](=O)[O-])cc3n2O)cc1)c1ccc(-n2cncn2)cc1 [K] | < 10 | < 75 |  |  | 10 to 25
17 | CC(=NO)c1ccc2nc(-c3ccc(NC(=O)c4ccc(N(C)C)cc4)cc3)n(O)c2c1 [DF] | > 25 | < 75 |  |  | > 25
18 | Cc1cccc(C(=O)Nc2ccc(-c3nc4ccc([N+](=O)[O-])cc4n3O)cc2)c1 [O] |  |  |  |  | > 25
19 | CC(=O)c1ccc(C(=O)Nc2ccc(-c3nc4ccc([N+](=O)[O-])cc4n3O)cc2C)cc1 [ER] |  | < 75 | > 25 |  | 
20 | O=C(O)COn1c(-c2ccc(NC(=O)c3ccc(F)cc3)cc2)nc2ccc([N+](=O)[O-])cc21 [DG, {2-[4-(4-Fluoro-benzoylamino)-phenyl]-6-nitro-benzoimidazol-1-yloxy}-acetic acid] |  | < 75 |  |  | > 25
21 | O=C(/C=C/c1ccc(O)cc1)Nc1ccc(-c2nc3ccc([N+](=O)[O-])cc3n2O)cc1 [AN] | 10 to 25 |  |  |  | 
22 | NC(=O)c1ccc2nc(-c3ccc(NC(=O)c4ccc(F)cc4)cc3)n(O)c2c1 [DO, 2-[4-(4-Fluoro-benzoylamino)-phenyl]-3-hdroxy-3H-benzoimidazole-5-carboxylic acid amide] | > 25 | < 75 | > 25 |  | 

Row | SMILES | EC50 [1] [µM] | activity at 50 µg/mL [2] [%] | EC50 [3, 5] [µM] | Cytotoxicity at 50 μg/mL Pseudomonas [4] | EC50 [3, 6] [µM]
23 | CCc1cc(-c2nc3ccc([N+](=O)[O-])cc3n2O)ccc1NC(=O)c1ccc(F)cc1 [DK] | > 25 | < 75 |  |  | 10 to 25
24 | O=C(Nc1ccc(-c2nc3ccc([N+](=O)[O-])cc3n2O)c(OCP(=O)(O)O)c1)c1ccc(F)cc1 [EC, [5-(4-Fluoro-benzoylamino)-2-(1-hydroxy-6-nitro-1H-benzoimidazol-2-yl)-phenoxymethyl]-phosphonic acid] | > 25 | < 75 | > 25 |  | 
25 | O=C(/C=C/c1ccccc1)Nc1ccc(-c2nc3ccc([N+](=O)O)cc3n2O)cc1 [J] | < 10 | < 75 |  |  | < 10
26 | O=C(/C=C/c1ccc(C(F)(F)F)cc1)Nc1ccc(-c2nc3ccc([N+](=O)[O-])cc3n2O)cc1 [Y] | 10 to 25 |  |  |  | < 10
27 | CCOP(=O)(COn1c(-c2ccc(NC(=O)c3ccc(F)cc3)cc2)nc2ccc([N+](=O)[O-])cc21)OCC [EG] | > 25 | < 75 | > 25 |  | 
28 | COc1ccccc1/C=C/C(=O)Nc1ccc(-c2nc3ccc([N+](=O)[O-])cc3n2O)cc1 [U] | < 10 |  |  |  | 10 to 25
29 | CC(=O)c1ccc(/C=C/C(=O)Nc2ccc(-c3nc4cc(OCCN5CCN(C)CC5)c([N+](=O)[O-])cc4n3O)cc2)cc1 [FU] |  |  |  | ** (reduced P. aeruginosa cytotoxicity below 75% of untreated, wild type levels at 50 mg/mL) | 
30 | O=C(Nc1ccc(-c2nc3ccc([N+](=O)[O-])cc3n2O)cc1)c1ccc(N2CCOCC2)cc1 [AD] | 10 to 25 |  |  |  | 
31 | O=[N+]([O-])c1ccc2nc(-c3ccc(C#Cc4ccc(F)cc4)cc3)n(O)c2c1 [R] | > 25 |  |  |  | > 25
32 | Cc1ccccc1C(=O)Nc1ccc(-c2nc3ccc([N+](=O)[O-])cc3n2O)cc1 [P] |  |  |  |  | > 25
33 | O=C(Nc1ccc(-c2nc3ccc([N+](=O)[O-])cc3n2O)cc1)c1ccccc1F [Q] |  |  |  |  | > 25
34 | CC(=O)Nc1ccc(C(=O)Nc2ccc(-c3nc4ccc([N+](=O)[O-])cc4n3O)cc2)cc1 [AC] | < 10 | < 75 |  |  | 10 to 25
35 | O=C(Cc1ccc(F)cc1)Nc1ccc(-c2nc3ccc([N+](=O)[O-])cc3n2O)cc1 [G] | > 25 |  |  |  | > 25
36 | CN1CCN(CCOc2cc3nc(-c4ccc(NC(=O)/C=C/c5ccc(F)cc5)cc4)n(O)c3cc2[N+](=O)[O-])CC1 [FR] |  |  |  | * (reduced P. aeruginosa cytotoxicity to 99-75% of untreated, wild type levels at 50 mg/mL) | 
37 | O=C(Nc1ccc2nc(-c3ccc([N+](=O)[O-])cc3)n(O)c2c1)c1ccc(F)cc1 [CW] |  | < 75 | > 25 |  | 
38 | O=C(/C=C/c1ccc(F)cc1)Nc1ccc(-c2nc3ccncc3n2O)cc1 [EK] | > 25 | < 75 | > 25 |  | 
39 | O=C(Nc1ccc(-c2nc3ccc([N+](=O)[O-])cc3n2O)cc1)c1cccc(F)c1 [N] |  |  |  |  | > 25
40 | Cc1cc(-c2nc3ccc([N+](=O)[O-])cc3n2O)ccc1NC(=O)/C=C/c1ccc(F)cc1 [EN] | > 25 | < 75 |  |  | 10 to 25
41 | O=C(NCc1ccc(-c2nc3ccc([N+](=O)[O-])cc3n2O)cc1)c1ccc(F)cc1 [Z] | > 25 |  |  |  | > 25
42 | O=C(Nc1ccc(-c2nc3ccc([N+](=O)[O-])cc3n2O)cc1)c1ccc(-n2cccn2)cc1 [AB] | < 10 |  |  |  | 
43 | O=C(/C=C/c1ccc(F)c(F)c1)Nc1ccc(-c2nc3ccc([N+](=O)[O-])cc3n2O)cc1 [W] | 10 to 25 | < 75 |  |  | 10 to 25
